The target in series [1] is T1, Aryl hydrocarbon receptor (Rattus norvegicus, UniProt P41738).
T1 sequence (P41738 10-853): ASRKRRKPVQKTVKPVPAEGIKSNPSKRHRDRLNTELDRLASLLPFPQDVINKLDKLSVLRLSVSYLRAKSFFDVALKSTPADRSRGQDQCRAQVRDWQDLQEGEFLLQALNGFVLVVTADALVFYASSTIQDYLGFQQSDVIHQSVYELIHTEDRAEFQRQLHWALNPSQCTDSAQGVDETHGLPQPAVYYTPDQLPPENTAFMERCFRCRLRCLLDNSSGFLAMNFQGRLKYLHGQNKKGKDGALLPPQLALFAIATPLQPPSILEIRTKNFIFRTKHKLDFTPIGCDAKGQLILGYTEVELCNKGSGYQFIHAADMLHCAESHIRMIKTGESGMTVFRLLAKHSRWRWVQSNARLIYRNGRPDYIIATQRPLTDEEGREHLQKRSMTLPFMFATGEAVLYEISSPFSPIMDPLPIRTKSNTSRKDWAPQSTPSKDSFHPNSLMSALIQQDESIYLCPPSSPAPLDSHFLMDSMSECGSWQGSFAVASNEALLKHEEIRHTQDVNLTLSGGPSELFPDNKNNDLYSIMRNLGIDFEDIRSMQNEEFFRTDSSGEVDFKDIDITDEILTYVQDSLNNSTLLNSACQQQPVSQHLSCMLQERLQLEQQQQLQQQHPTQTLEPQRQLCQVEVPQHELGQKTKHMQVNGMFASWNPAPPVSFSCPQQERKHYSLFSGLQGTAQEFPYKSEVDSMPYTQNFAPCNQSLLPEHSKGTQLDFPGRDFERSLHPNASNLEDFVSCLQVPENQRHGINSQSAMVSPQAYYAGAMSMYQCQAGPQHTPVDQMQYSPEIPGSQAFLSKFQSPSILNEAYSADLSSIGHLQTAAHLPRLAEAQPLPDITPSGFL
Particulars: for EC10, linear transformed / EC10, linear / logEC10: Bioassay AhR, dosing range all; for EC10, linear: linear model fit; for logEC10: log-logistic model fit; for log(1/EC10) AhR: input of the ToxPi score, values up to 1.00. From the text:
All bioassay media components and the ERα-UAS-bla GripTite and PPARγ-UAS-bla cells were obtained from Thermo Fisher Scientific (Waltham, MA, USA). AREc32 reporter gene cells based on MCF7 were provided by C. Roland Wolf (Cancer Research UK); AhR CALUX cells (H4L7.5c2 derived from H4IIe) were provided by Michael Denison (UC Davis, USA); and SH-SY5Y cells were purchased from Sigma-Aldrich.
Cell culture conditions and bioassay protocols including response detection are provided in Text S2.1–2.4 and Table S3. − Cell viability was determined from cell confluency using an IncuCyte S3 Live-Cell Analysis System (Sartorius AG, Essen, Germany) before and after exposure, except for SH-SY5Y cells (live–dead staining with Nuclear Green LcS1 and propidium iodide, Abcam, UK). For metabolic activation experiments, cell viability was assessed using the ToxBLAzer DualScreen Kit (Thermo Fisher Scientific) to capture the remaining toxicity in ERα-UAS-bla GripTite after treatment with the aCYP catalyst (details in Text S2.4).
For ARE, the concentration that triggered an induction ratio of 1.5 (ECIR1.5) was used as the benchmark value, as detailed in Text S2.5. IC10 values also served as a threshold for data analysis in all assays; only concentrations below IC10 were considered when deriving EC10 or ECIR1.5. […]
S2: Cell culture and bioassays
S2.1: Cell Culturing Conditions
All suppliers and sources are given in detail in SI-Excel S3. The bioassay media for the different assays were prepared as follows: Assay medium for ER alpha-UAS-bla GripTite (ERα) and PPAR gamma-UAS-bla 293H (PPARγ) was prepared with 98% Opti-MEM, supplemented with 2% charcoal-stripped FBS, and 100 U/mL penicillin-streptomycin. MitoOxTox and AhR assay medium was comprised of 90% DMEM with GlutaMAX, supplemented with 10% FBS, and 100 U/mL penicillin-streptomycin. Neurotoxicity assay medium consisted of the neurobasal […]
(1 picture or pasted object on this page, not shown here) […]
medium, supplemented with 2% B-27 Supplement and 2 mM GlutaMAX Supplement. SH - SY5Y cells were differentiated with 10 µM all-trans retinoic acid prior to the assay.
S2.2: Cell Seeding and Incubation. For all bioassays, cell suspensions in the respective assay medium were dispensed into each well of 384-well plates using a MultiFlo Dispenser (Biotek, (now Agilent), Winooski, VT, U.S.). After seeding, the plates were incubated at 37° C and 5% CO₂ for […]. The final cell densities and plate types were as follows: Black poly-D-lysine coated 384-well plates (Product No. 354663, Corning Inc., NYC, U.S.) were used for PPARγ:
6500 cells/well, ERα: 5000 cells/well. White 384-well plates with a clear bottom (Product No.
781098, Greiner, Kremsmünster, Austria) were utilized for the MitoOxTox assay: 2650

Series [2] has as its target T2, Peroxisome proliferator-activated receptor γ (Homo sapiens, UniProt P37231).
T2 sequence (P37231 238-505 limits assumed): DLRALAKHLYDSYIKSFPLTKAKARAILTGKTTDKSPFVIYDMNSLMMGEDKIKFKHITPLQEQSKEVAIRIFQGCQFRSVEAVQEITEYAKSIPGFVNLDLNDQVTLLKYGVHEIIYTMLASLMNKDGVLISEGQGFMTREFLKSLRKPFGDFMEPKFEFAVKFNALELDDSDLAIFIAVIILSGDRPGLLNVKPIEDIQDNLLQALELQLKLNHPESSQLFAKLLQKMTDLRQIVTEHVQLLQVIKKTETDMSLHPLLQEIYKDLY
Description: cell-based. Conditions: for EC10, PPARγ (M): 10% of maximum effect of rosiglitazone; for EC10, linear transformed / EC10, linear / logEC10: PPARγ bioassay; for EC10, linear: linear model; for logEC10: log-logistic model; for SR-ScorePPARγ: SR-Score, sigma k=1, x=5; for Specificity ratio (SRbaseline) SRPPARγ: against baseline cytotoxicity; for Specificity ratio (SRcytotoxicity) SRPPARγ: against experimental cytotoxicity; for EC10, PPARγ: effect; for log(1/EC10) PPARγ: input of the ToxPi score, values up to 1.00; for Emax: read-out: Emax%PPARγ. In short, it runs like this:
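ERα-UAS-bla GripTite and PPARγ-UAS-bla reporter cells were seeded in assay medium with 2% charcoal-stripped FBS and held 24 h at 37 °C before dosing. Viability came from IncuCyte confluency before and after exposure. EC10 used only concentrations below IC10; Emax% is the log-logistic curve maximum relative to the reference chemical.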

Turning to `O=C(OCc1ccccc1)c1ccc(O)cc1` [BzPB, Benzyl 4-hydroxybenzoate], in series [1], the “EC10, linear transformed” value is 1.73E-04; the “EC10, linear” value was “no effect”; the logEC10 entry is “no effect”; the “log(1/EC10) AhR” value amounted to 0.80. In series [2], the “EC10, PPARγ (M)” value was 2.04 × 10^–6 M; the SR-ScorePPARγ came out at 1.00; the “Specificity ratio (SRbaseline) SRPPARγ” value is on record as 8.14; the “Specificity ratio (SRcytotoxicity) SRPPARγ” value was 22.95. In addition, in series [2], the “EC10, PPARγ” value was determined as 2040 nM; the “log(1/EC10) PPARγ” value worked out at 0.80; the Emax was found to be 16%. Also, in series [2] (dosing range all), the “EC10, linear transformed” value amounted to 2.04E-06; the “EC10, linear” value came to 2.87E-06; the logEC10 is on record as -5.69.
Turning to `CC(C)Oc1ccc(S(=O)(=O)c2ccc(O)cc2)cc1` [D8, 4-((4-Isopropoxyphenyl)sulfonyl)phenol], in series [1], the “EC10, linear” value is listed as “no effect”; the logEC10 result is given as “no effect”; the “log(1/EC10) AhR” value is 0.75. Also, in series [2] (dosing range all), the “EC10, linear” value was determined as 5.40E-06 and the logEC10 result is given as “no effect”.
As for `Cc1ccc(S(=O)(=O)NC(=O)Nc2cccc(OS(=O)(=O)c3ccc(C)cc3)c2)cc1` [Pergafast, N-(p-toluenesulfonyl)-N'-(3-(p-toluenesulfonyloxy)phenyl)urea], in series [1], the “EC10, AhR (M)” value was 2.29 × 10^–5 M; the “EC10, linear transformed” value turned out to be 2.45E-05; the “EC10, linear” value came out at 2.29E-05; the logEC10 is -4.61. The molecule also displayed an SR-ScoreAhR in series [1] (SR-Score, sigma k=1, x=5) of 0.73. Moreover, the “Specificity ratio (SRbaseline) SRAhR” value in series [1] (against baseline cytotoxicity) is listed as 6.02. For the same molecule, the “EC10, AhR” value in series [1] (effect) is 22900 nM. In series [2], the “EC10, PPARγ (M)” value is 6.71 × 10^–7 M; the SR-ScorePPARγ was found to be 1.00; the “Specificity ratio (SRbaseline) SRPPARγ” value is 77.74; the “Specificity ratio (SRcytotoxicity) SRPPARγ” value was determined as 28.39. Further, in series [2], the “EC10, PPARγ” value turned out to be 671 nM; the “log(1/EC10) PPARγ” value worked out at 0.87; the Emax worked out at 16%. In series [2] (dosing range all), the “EC10, linear transformed” value worked out at 6.71E-07; the “EC10, linear” value is on record as 9.42E-07; the logEC10 is listed as -6.17.
With `CC(C)(c1cc(Cl)c(O)c(Cl)c1)c1cc(Cl)c(O)c(Cl)c1` [TCBPA, 2,2',6,6'-Tetrachlorobisphenol A], in series [1], the “EC10, linear transformed” value is given as 7.24E-05; the “EC10, linear” value came to 1.69E-04; the logEC10 entry is listed as “no effect”; the “log(1/EC10) AhR” value came out at 0.84. Moreover, in series [2] (dosing range high), the “EC10, linear transformed” value came out at 4.16E-08; the “EC10, linear” value is 7.40E-08; the logEC10 is on record as -7.38. Further, in series [2] (dosing range low), the “EC10, linear transformed” value is 1.55E-07; the “EC10, linear” value was determined as 1.92E-07; the logEC10 is recorded as -6.81. Besides, in series [2], the SR-ScorePPARγ worked out at 1.00; the “EC10, PPARγ” value was determined as 155 nM; the “log(1/EC10) PPARγ” value came out at 0.96; the Emax worked out at 32%.
As to `Cc1cc(Cc2cc(C)c(O)c(C)c2)cc(C)c1O` [TMBPF, Bis(3,5-dimethyl-4-hydroxyphenyl)methane], in series [1], the “EC10, linear transformed” value turned out to be 1.03E-04; the “EC10, linear” value is “no effect”; the logEC10 entry is recorded as “no effect”. In series [2], the “EC10, PPARγ (M)” value is 3.29 × 10^–7 M; the SR-ScorePPARγ is recorded as 0.98; the “Specificity ratio (SRbaseline) SRPPARγ” value is 13.64; the “Specificity ratio (SRcytotoxicity) SRPPARγ” value was 8.97. In series [2], the “EC10, PPARγ” value turned out to be 329 nM; the “log(1/EC10) PPARγ” value came out at 0.92; the Emax worked out at 18%. In series [2] (dosing range all), the “EC10, linear transformed” value stood at 3.29E-07; the “EC10, linear” value was 5.55E-07; the logEC10 was -6.48.
As for `CC1(C)[C@H](O)C(C)(C)[C@H]1O` [Trans TMCD], in series [1], the “EC10, linear transformed” value is 8.49E-03; the “EC10, linear” value was “no effect”; the logEC10 is reported as -2.00. Further, in series [2] (dosing range all), the “EC10, linear” value is “no effect” and the logEC10 result is recorded as “no effect”.

Source of the values: article PMC12392461, “Beyond Estrogenicity: A Comparative Assessment of Bisphenol A and Its Alternatives in In Vitro Assays Questions Safety of Replacements” (Environmental Science & Technology, 2025).
